From PubChem BioAssay AID1919007 (Molecular Pharmacology Branch, DTP, NCI, 2023)

System: A498 complex spheroids with HUVEC/MSC, growth
Assay: Anticancer human tumor A498 cell line growth inhibition [AhR];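 further: seven day exposure starting three days after spheroid seeding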;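 on viability, T/C: luminescence signal used as a surrogate for viable cells; luminescence viability scaled so 100% equals DMSO vehicle wells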
Conditions: for IC50: curve of first compound; for viability, T/C: stronger effect = lower value
How it was run: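 Agents were dosed in half-log steps down from roughly clinical Cmax, or from 10 microM where Cmax was unknown, alone and with AhR antagonists. Read-out: percent test/control growth of tumor spheroids containing HUVEC and MSC stromal cells.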

[1] = second compound 0.1 µM, first compound 0.0316 µM
[2] = second compound 0.1 µM, first compound 0.1 µM
[3] = second compound 0.316 µM, first compound 0.0316 µM
[4] = second compound 0.316 µM, first compound 0.1 µM
[5] = second compound 1 µM, first compound 0.0316 µM
[6] = second compound 1 µM, first compound 0.1 µM
[7] = second compound 3.16 µM, first compound 0.0316 µM
[8] = second compound 3.16 µM, first compound 0.1 µM
[9] = second compound 10 µM, first compound 0.0316 µM
[10] = second compound 10 µM, first compound 0.1 µM

`CC1(C)CCC(CN2CCN(c3ccc(C(=O)NS(=O)(=O)c4ccc(NCC5CCOCC5)c([N+](=O)[O-])c4)c(Oc4cnc5[nH]ccc5c4)c3)CC2)=C(c2ccc(Cl)cc2)C1` + CC(CO)NC(=O)c1cc(-c2ccc(Cl)cc2)nn(-c2cnn(C)c2)c1=O gave an IC50 (second compound 0.1 µM) of 5.41 µM, an IC50 (second compound 0.316 µM) of 5.05 µM and an IC50 (second compound 1 µM) of 4.9 µM. For the same molecule, the IC50 (second compound 3.16 µM) was 3.97 µM, the IC50 (second compound 10 µM) was 3.8 µM and the viability, T/C [1] was 98.3%. For the same molecule, the viability, T/C [2] was 98%, the viability, T/C (second compound 0.1 µM, first compound 0.316 µM) was 94.3% and the viability, T/C (second compound 0.1 µM, first compound 1 µM) was 86.4%. For the same molecule, the viability, T/C (second compound 0.1 µM, first compound 3.16 µM) was 75.1%, the viability, T/C (second compound 0.1 µM, first compound 10 µM) was 23.6% and the viability, T/C [3] was 91.1%. It also gave a viability, T/C [4] of 92.3%, a viability, T/C (second compound 0.316 µM, first compound 0.316 µM) of 85.7% and a viability, T/C (second compound 0.316 µM, first compound 1 µM) of 84.7%. The viability, T/C (second compound 0.316 µM, first compound 3.16 µM) was 69.7%, the viability, T/C (second compound 0.316 µM, first compound 10 µM) was 21.6% and the viability, T/C [5] was 82.5%. For the same molecule, the viability, T/C [6] was 85.1%, the viability, T/C (second compound 1 µM, first compound 0.316 µM) was 86.4% and the viability, T/C (second compound 1 µM, first compound 1 µM) was 79.5%. For the same molecule, the viability, T/C (second compound 1 µM, first compound 3.16 µM) was 68.8%, the viability, T/C (second compound 1 µM, first compound 10 µM) was 20.3% and the viability, T/C [7] was 77.5%. It also gave a viability, T/C [8] of 79.4%, a viability, T/C (second compound 3.16 µM, first compound 0.316 µM) of 79.4% and a viability, T/C (second compound 3.16 µM, first compound 1 µM) of 63.3%. It also gave a viability, T/C (second compound 3.16 µM, first compound 3.16 µM) of 61.2%, a viability, T/C (second compound 3.16 µM, first compound 10 µM) of 20.6% and a viability, T/C [9] of 64.3%. For the same molecule, the viability, T/C [10] was 69.5%, the viability, T/C (second compound 10 µM, first compound 0.316 µM) was 66.1% and the viability, T/C (second compound 10 µM, first compound 1 µM) was 59.4%. For the same molecule, the viability, T/C (second compound 10 µM, first compound 3.16 µM) was 56.8% and the viability, T/C (second compound 10 µM, first compound 10 µM) was 22.4%.
Molecule `CCN(c1cc(-c2ccc(CN3CCOCC3)cc2)cc(C(=O)NCc2c(C)cc(C)[nH]c2=O)c1C)C1CCOCC1` + CC(CO)NC(=O)c1cc(-c2ccc(Cl)cc2)nn(-c2cnn(C)c2)c1=O has an IC50 (second compound 0.1 µM) of over 3 µM, an IC50 (second compound 0.316 µM) of over 3 µM and an IC50 (second compound 1 µM) of over 3 µM. It also gave an IC50 (second compound 3.16 µM) of over 3 µM, an IC50 (second compound 10 µM) of over 3 µM and a viability, T/C (second compound 0.1 µM, first compound 0.00949 µM) of 99.8%. For the same molecule, the viability, T/C (second compound 0.1 µM, first compound 0.03 µM) was 95%, the viability, T/C (second compound 0.1 µM, first compound 0.0949 µM) was 97.8% and the viability, T/C (second compound 0.1 µM, first compound 0.3 µM) was 95.6%. For the same molecule, the viability, T/C (second compound 0.1 µM, first compound 0.949 µM) was 102%, the viability, T/C (second compound 0.1 µM, first compound 3 µM) was 103% and the viability, T/C (second compound 0.316 µM, first compound 0.00949 µM) was 93.2%. For the same molecule, the viability, T/C (second compound 0.316 µM, first compound 0.03 µM) was 101%, the viability, T/C (second compound 0.316 µM, first compound 0.0949 µM) was 97.8% and the viability, T/C (second compound 0.316 µM, first compound 0.3 µM) was 93.3%. The viability, T/C (second compound 0.316 µM, first compound 0.949 µM) was 96.1%, the viability, T/C (second compound 0.316 µM, first compound 3 µM) was 98.9% and the viability, T/C (second compound 1 µM, first compound 0.00949 µM) was 94.4%. The viability, T/C (second compound 1 µM, first compound 0.03 µM) was 95.8%, the viability, T/C (second compound 1 µM, first compound 0.0949 µM) was 103% and the viability, T/C (second compound 1 µM, first compound 0.3 µM) was 92.3%. For the same molecule, the viability, T/C (second compound 1 µM, first compound 0.949 µM) was 95.4%, the viability, T/C (second compound 1 µM, first compound 3 µM) was 97.4% and the viability, T/C (second compound 3.16 µM, first compound 0.00949 µM) was 84.3%. For the same molecule, the viability, T/C (second compound 3.16 µM, first compound 0.03 µM) was 96.2%, the viability, T/C (second compound 3.16 µM, first compound 0.0949 µM) was 101% and the viability, T/C (second compound 3.16 µM, first compound 0.3 µM) was 88.5%. For the same molecule, the viability, T/C (second compound 3.16 µM, first compound 0.949 µM) was 85.6%, the viability, T/C (second compound 3.16 µM, first compound 3 µM) was 102% and the viability, T/C (second compound 10 µM, first compound 0.00949 µM) was 72.7%. The viability, T/C (second compound 10 µM, first compound 0.03 µM) was 77.5%, the viability, T/C (second compound 10 µM, first compound 0.0949 µM) was 83.3% and the viability, T/C (second compound 10 µM, first compound 0.3 µM) was 75.3%. For the same molecule, the viability, T/C (second compound 10 µM, first compound 0.949 µM) was 70.3% and the viability, T/C (second compound 10 µM, first compound 3 µM) was 75.9%.
Molecule `Cn1ncnc1C1c2n[nH]c(=O)c3cc(F)cc(c23)NC1c1ccc(F)cc1` (stereo not given) + CC(CO)NC(=O)c1cc(-c2ccc(Cl)cc2)nn(-c2cnn(C)c2)c1=O has an IC50 (second compound 0.1 µM) of over 0.1 µM, an IC50 (second compound 0.316 µM) of over 0.1 µM and an IC50 (second compound 1 µM) of over 0.1 µM. The IC50 (second compound 3.16 µM) was over 0.1 µM, the IC50 (second compound 10 µM) was over 0.1 µM and the viability, T/C (second compound 0.1 µM, first compound 0.000316 µM) was 100%. For the same molecule, the viability, T/C (second compound 0.1 µM, first compound 0.001 µM) was 102%, the viability, T/C (second compound 0.1 µM, first compound 0.00316 µM) was 106% and the viability, T/C (second compound 0.1 µM, first compound 0.01 µM) was 95.1%. The viability, T/C [1] was 91.4%, the viability, T/C [2] was 92.4% and the viability, T/C (second compound 0.316 µM, first compound 0.000316 µM) was 99.5%. The viability, T/C (second compound 0.316 µM, first compound 0.001 µM) was 103%, the viability, T/C (second compound 0.316 µM, first compound 0.00316 µM) was 101% and the viability, T/C (second compound 0.316 µM, first compound 0.01 µM) was 88.5%. The viability, T/C [3] was 87.6%, the viability, T/C [4] was 87.8% and the viability, T/C (second compound 1 µM, first compound 0.000316 µM) was 100%. The viability, T/C (second compound 1 µM, first compound 0.001 µM) was 95.7%, the viability, T/C (second compound 1 µM, first compound 0.00316 µM) was 103% and the viability, T/C (second compound 1 µM, first compound 0.01 µM) was 94.1%. The viability, T/C [5] was 93.5%, the viability, T/C [6] was 91.2% and the viability, T/C (second compound 3.16 µM, first compound 0.000316 µM) was 91%. It also gave a viability, T/C (second compound 3.16 µM, first compound 0.001 µM) of 94.1%, a viability, T/C (second compound 3.16 µM, first compound 0.00316 µM) of 92.1% and a viability, T/C (second compound 3.16 µM, first compound 0.01 µM) of 80.2%. For the same molecule, the viability, T/C [7] was 77.8%, the viability, T/C [8] was 79.1% and the viability, T/C (second compound 10 µM, first compound 0.000316 µM) was 74.3%. It also gave a viability, T/C (second compound 10 µM, first compound 0.001 µM) of 71.7%, a viability, T/C (second compound 10 µM, first compound 0.00316 µM) of 75.9% and a viability, T/C (second compound 10 µM, first compound 0.01 µM) of 69%. It also gave a viability, T/C [9] of 68.5% and a viability, T/C [10] of 67.1%.
